Data: BigSolDB 2.1

COC(=O)Nc1nc2ccc(S(=O)c3ccccc3)cc2[nH]1 (configuration not stated)
solubility (mole fraction)
Conditions | 278.15 K | 283.15 K | 288.15 K | 293.15 K | 298.15 K | 303.15 K | 308.15 K | 313.15 K | 318.15 K | 323.15 K
in 2-ethoxyethanol | 0.00043 | 0.000518 | 0.000583 | 0.000682 | 0.00079 | 0.000908 | 0.00104 | 0.00118 | 0.00132 | 0.00144
in 2-methoxyethanol | 0.000687 | 0.000777 | 0.000887 | 0.00104 | 0.00118 | 0.00133 | 0.0015 | 0.00173 | 0.00191 | 0.00215
in 2-propoxyethanol | 0.000338 | 0.000402 | 0.000476 | 0.000554 | 0.000629 | 0.000727 | 0.000802 | 0.0009 | 0.00103 | 0.00117
in DMAc | 0.00381 | 0.00471 | 0.00576 | 0.00659 | 0.00821 | 0.00976 | 0.0112 | 0.0125 | 0.0147 | 0.017
in DMF | 0.00284 | 0.00329 | 0.00363 | 0.00408 | 0.00454 | 0.00502 | 0.00576 | 0.00632 | 0.00718 | 0.00796
in DMSO | – | – | – | 0.00925 | 0.0109 | 0.012 | 0.0138 | 0.0157 | 0.0175 | 0.0194
in diglyme | 0.00015 | 0.000174 | 0.000203 | 0.000241 | 0.00028 | 0.000321 | 0.000362 | 0.000406 | 0.000454 | 0.000502
in methanol | 8.35e-05 | 9.72e-05 | 0.00012 | 0.000148 | 0.00017 | 0.000201 | 0.000242 | 0.000287 | 0.000332 | 0.000389
